# Tests used:
# [1] = Stability in human liver microsomes; details: microsomes
# [2] = Stability in human liver S9 fraction
structure (smiles),measurement,setting,value
"C[C@]12CC[C@H]3[C@@H](CCC4=CC(=O)CC[C@@]43C)[C@@H]1CC[C@@H]2O [Testosterone, reference compound]",half-life,[1],8 to 20 min
same,half-life,[2],39 min

# Source: US8114862B2, “TGR5 modulators and methods of use thereof” (Intercept Pharmaceuticals, Inc., priority 2008, dated 2012)
